According to PubChem BioAssay (NCI):
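Five compound concentrations were applied to cells in 96-well plates for 48 hours; endpoints were derived by simple linear interpolation of the resulting dose-response curve. GI50 marks 50% less growth. TGI is the concentration that stops growth completely.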

What was measured:
Assay in all cases: DTP human tumour cell line panel, 48 h
[1] = tested on: SR leukemia
[2] = tested on: SK-MEL-2 melanoma
[3] = tested on: RPMI-8226 leukemia
[4] = tested on: OVCAR-8 ovarian
[5] = tested on: SNB-75 CNS
[6] = tested on: SF-539 CNS
[7] = tested on: SF-295 CNS
[8] = tested on: A549 NSCLC
[9] = tested on: NCI/ADR-RES ovarian
[10] = tested on: MCF7 breast

| SMILES | TGI [1] | TGI [2] | TGI [3] | TGI [4] | TGI [5] | TGI [6] | TGI [7] | TGI [8] | TGI [9] | TGI [10] | GI50 [2] | GI50 [3] | GI50 [9] | GI50 [8] | GI50 [4] | GI50 [5] | GI50 [10] | GI50 [6] | GI50 [7] | GI50 [1] |
| --- | --- | --- | --- | --- | --- | --- | --- | --- | --- | --- | --- | --- | --- | --- | --- | --- | --- | --- | --- | --- |
| COc1cc2c(cc1OC)C(C#N)N(C(=O)c1ccccc1)C=C2OC(=O)c1ccccc1 (stereo unspecified) | > 100 µM | 54.7 µM | > 100 µM | 71.8 µM | 40 µM | 39 µM | 45.4 µM | – | – | – | – | – | – | – | – | – | – | – | – | – |
| COc1ccc2c(c1)[n+]([O-])c(-c1cccc(Cl)c1)c(N)[n+]2[O-] | > 100 µM | > 100 µM | – | > 100 µM | – | > 100 µM | > 100 µM | > 100 µM | – | – | – | – | – | – | – | – | – | – | – | – |
| Cc1cc(=O)[nH]c(CNC(=O)c2ccc3ccccc3c2)n1 | > 100 µM | > 100 µM | – | > 100 µM | > 100 µM | > 100 µM | > 100 µM | > 100 µM | – | – | – | – | – | – | – | – | – | – | – | – |
| O=C(NC(=Nc1ccccc1)SCSC(=Nc1ccccc1)NC(=O)c1ccco1)c1ccco1 | – | > 100 µM | > 100 µM | > 100 µM | 35.1 µM | 59.1 µM | 78.4 µM | > 100 µM | – | – | – | – | – | – | – | – | – | – | – | – |
| COc1ccc(Nc2nc3cc(C(F)(F)F)ccc3nc2-c2ccccc2)cc1OC | > 100 µM | > 100 µM | – | > 100 µM | > 100 µM | > 100 µM | 53.3 µM | > 100 µM | – | – | – | – | – | – | – | – | – | – | – | – |
| O=C(Cc1ccccc1[N+](=O)[O-])C(CO)c1ccccc1[N+](=O)[O-] (stereo unspecified) | – | > 100 µM | > 100 µM | > 100 µM | > 100 µM | > 100 µM | > 100 µM | > 100 µM | – | – | – | – | – | – | – | – | – | – | – | – |
| COC(=O)C1CSC(c2csc(CCN)n2)=N1 (stereo unspecified) | > 100 µM | > 100 µM | > 100 µM | > 100 µM | > 100 µM | – | > 100 µM | > 100 µM | – | – | – | – | – | – | – | – | – | – | – | – |
| O=C(COc1ccccc1Cl)N1N=C(c2ccccc2)CC1(O)c1ccccc1 (stereo unspecified) | 32.8 µM | 36.8 µM | 32.9 µM | 32.1 µM | > 100 µM | 34.2 µM | 34.8 µM | 44.4 µM | – | – | – | – | – | – | – | – | – | – | – | – |
| N#CCCN(CCC#N)c1ccc(/C=C(/NC(=O)c2cc([N+](=O)[O-])ccc2Cl)C(=O)NN)cc1 | > 100 µM | > 100 µM | > 100 µM | > 100 µM | > 100 µM | > 100 µM | > 100 µM | > 100 µM | – | – | – | – | – | – | – | – | – | – | – | – |
| N/C=N/S(=O)(=O)c1ccc(NC(=O)COC(=O)c2cccc3c(=O)c4ccccc4[nH]c23)cc1 | – | – | > 100 µM | > 100 µM | > 100 µM | > 100 µM | > 100 µM | > 100 µM | – | – | – | – | – | – | – | – | – | – | – | – |
| COC(=O)C1=COC2OC3C(C(C)O)C(=O)OC34C=CC1C24 (stereo unspecified) | – | > 100 µM | 90.8 µM | 47.2 µM | > 100 µM | > 100 µM | > 100 µM | > 100 µM | 69 µM | > 100 µM | – | – | – | – | – | – | – | – | – | – |
| COc1cc2c3c(n(CCCN4CCNCC4)c(=O)c2cc1OC)-c1cc2c(cc1C3=O)OCO2 | – | 28.3 µM | 1.63 µM | 1.06 µM | 11.1 µM | 0.355 µM | 1.93 µM | 0.922 µM | 11.5 µM | 7.66 µM | 2.91 µM | 0.16 µM | 2.77 µM | 0.0393 µM | 0.0803 µM | 1.44 µM | 0.0119 µM | 0.0399 µM | 0.0851 µM | – |
| C/C(=N\NC(=S)N1CCN(c2ccccn2)CC1)c1ccccn1 | 2.06 µM | 12.9 µM | 23.6 µM | 20.4 µM | 17.6 µM | 8.02 µM | 12.4 µM | 13.7 µM | – | 11.4 µM | 0.231 µM | – | – | 0.0464 µM | – | – | – | 0.0272 µM | 0.0129 µM | 0.0167 µM |
| CNS(=O)(=O)OCC1OC(n2cnc3cncnc32)C(O)C1O (stereo unspecified) | – | > 100 µM | > 100 µM | > 100 µM | > 100 µM | > 100 µM | > 100 µM | > 100 µM | > 100 µM | > 100 µM | > 100 µM | > 100 µM | > 100 µM | > 100 µM | > 100 µM | > 100 µM | > 100 µM | > 100 µM | > 100 µM | – |
| c1ccc2c(c1)SC(=C1Sc3ccccc3S1)S2 | – | – | – | > 100 µM | 73.3 µM | – | > 100 µM | > 100 µM | – | – | – | – | – | – | – | – | – | – | – | – |
| CC1(C)NC(=O)N(CCCCCCN2C(=O)NC(C)(C)C2=O)C1=O | – | > 100 µM | > 100 µM | > 100 µM | > 100 µM | – | – | > 100 µM | – | – | – | – | – | – | – | – | – | – | – | – |
| [O-]/N=[N+](/[O-])C1CCCCC1=[N+]1CCOCC1 (stereo unspecified) | > 100 µM | > 100 µM | > 100 µM | > 100 µM | – | – | > 100 µM | > 100 µM | – | – | – | – | – | – | – | – | – | – | – | – |
| OCC1OC2c3ccccc3COC2C1OCc1ccccc1 (stereo unspecified) | > 100 µM | > 100 µM | > 100 µM | > 100 µM | > 100 µM | – | > 100 µM | > 100 µM | – | – | – | – | – | – | – | – | – | – | – | – |
